Test results from patent publication US20200370033A1, “BIOLOGICAL ASSEMBLY INCLUDING BIOLOGICAL COMPONENT AND SHIELD” (Regents of the University of Minnesota, priority 2018, published 2020).

Key:
[1] = tested on: E. coli DH5α expressing homoprotocatechuate 2,3-dioxygenase (2,3-HPCD); assay type: cell-based; settings: 1% w/v for 20 minutes
Procedure: A 200 μL aliquot of 500 μM DHPAC in 50 mM PB at pH 7.5 was added to each well and A380 was measured for up to one hour. The data was then fit to a first order reaction model of the form:
Cp(t)=Cs,0(1−e^−k^r^t) (4)
Cp is the product concentration, Cs,0 is the initial substrate concentration, and kr is the first order reaction rate constant.

[2] = Detergent and micelle properties; assay type: physicochemical; settings: for Est. Micelle MW: estimated micelle molecular weight
[3] = detergent micelle; cited from earlier work

| Substance | change in biocatalytic activity after detergent/surfactant treatment [1] | Est. Micelle MW [2] [kDa] | Aggregation Number [3] | micelle hydrodynamic radii [2] [nm] |
| --- | --- | --- | --- | --- |
| polysorbate 85 [Tween 85] | modest | 110 | 60 |  |
| polyethylene glycol p-(1,1,3,3-tetramethylbutyl)-phenyl ether [Triton X-100] | modest | 228 | 140 | ~4 |
